Test results from BindingDB's records for PubMed 8930187 (Leiden University, 1996).

Biological target: Gamma-aminobutyric acid receptor subunit alpha-1 (Rattus norvegicus, UniProt P62813)
Sequence (P62813 whole entry): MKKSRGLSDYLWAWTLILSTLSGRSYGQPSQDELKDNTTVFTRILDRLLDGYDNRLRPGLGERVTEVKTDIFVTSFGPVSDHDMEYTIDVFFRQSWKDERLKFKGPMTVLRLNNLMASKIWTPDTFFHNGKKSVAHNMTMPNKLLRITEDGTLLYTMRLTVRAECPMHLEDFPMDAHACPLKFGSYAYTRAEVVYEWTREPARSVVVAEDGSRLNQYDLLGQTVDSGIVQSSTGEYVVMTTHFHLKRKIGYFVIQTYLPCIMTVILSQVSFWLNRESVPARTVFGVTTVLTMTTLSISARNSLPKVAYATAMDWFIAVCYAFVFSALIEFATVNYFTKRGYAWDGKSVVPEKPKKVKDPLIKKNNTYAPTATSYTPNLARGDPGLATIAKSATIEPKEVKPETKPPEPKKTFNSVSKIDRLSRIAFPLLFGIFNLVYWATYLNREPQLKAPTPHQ

Structure (SMILES) | Ki
CN1C(=O)CN=C(c2ccccc2F)c2cc([N+](=O)[O-])ccc21 [Flunitrazepam] | 29 nM
Cc1ncc2n1-c1ccc(Cl)cc1C(c1ccccc1F)=NC2 [12-chloro-9-(2-fluorophenyl)-3-methyl-2,4,8-triazatricyclo[8.4.0.0^{2,6}]tetradeca-1(10),3,5,8,11,13-hexaene] | 26 nM
O=C1CN=C(c2ccccc2Cl)c2cc([N+](=O)[O-])ccc2N1 [5-(2-chlorophenyl)-7-nitro-1,3-dihydro-2H-1,4-benzodiazepin-2-one] | 27 nM
O=C1Nc2ccc(Cl)cc2C(c2ccccc2)=NC1O (centres undefined) [CAS_604-75-1] | 350 nM
